# Reference: US20240342111A1, “ISOMER-SPECIFIC NEUROPROTECTIVE EFFECT OF NATURAL RESERVATROL” (priority 2021, published 2024)
# Columns and labels:
# TyrRS [1] = target: T1, TyrRS (Rattus norvegicus, UniProt Q4KM49); assay: Immunostaining of neuronal TyrRS, RSV alone or in combination with Aβ; type: cell-based; conditions: Aβ 50 nM alone, 16 hours
# T1 construct: Primary cortical neuron cultures were obtained from E18 Sprague Dawley rats' cortices; endogenous in cells; host or cells: rat primary cortical neurons (E18 Sprague Dawley)
# T1 sequence (Q4KM49 1-528): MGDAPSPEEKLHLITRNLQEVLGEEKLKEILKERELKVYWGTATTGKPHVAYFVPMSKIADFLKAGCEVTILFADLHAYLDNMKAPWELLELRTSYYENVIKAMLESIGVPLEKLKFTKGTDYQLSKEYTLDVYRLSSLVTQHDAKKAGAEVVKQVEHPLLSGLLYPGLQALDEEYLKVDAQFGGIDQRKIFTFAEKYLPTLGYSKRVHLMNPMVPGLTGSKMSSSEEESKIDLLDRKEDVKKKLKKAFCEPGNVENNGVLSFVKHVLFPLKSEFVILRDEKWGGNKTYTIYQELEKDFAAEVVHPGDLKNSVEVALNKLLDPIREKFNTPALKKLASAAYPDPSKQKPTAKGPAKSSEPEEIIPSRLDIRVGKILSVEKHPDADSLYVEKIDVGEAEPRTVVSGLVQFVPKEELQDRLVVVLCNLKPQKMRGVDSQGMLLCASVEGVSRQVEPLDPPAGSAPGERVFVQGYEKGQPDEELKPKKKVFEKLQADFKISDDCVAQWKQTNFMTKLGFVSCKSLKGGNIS
# [2] = system: phenyl-tRNA synthetase beta (PheRSβ); assay: Immunoblot for PheRSβ after treatment with Aβ42; type: cell-based, rat; conditions: different doses of Aβ42, 24 hours
# Description: (§1) Representative immunostaining images (scale bar, 20 μm) for neuronal TyrRS (spectral images) after treatment with neurotoxic agents result in TyrRS downregulation. […] The protein level of TyrRS was quantified by measuring the average intensity of fluorescence staining with regions defined by MAP2 (neurite marker) staining across n=3 experiments using n≥20 neurons for quantification per treatment condition. […] Rat cortical neurons (DIV 9) were treated with different doses of Aβ42 for 24 hours. All graphical representations depict mean±SEM from n=3 experiments with statistical significance calculated using paired Student's t-test.
# (§2) Cultured neurons (DIV 9-10) were washed once with cold 1×PBS and lysed in cell lysis buffer (20 mM Tris-HCl (pH 7.5), 150 mM NaCl, 1 mM Na2EDTA, 1 mM EGTA, 1% Triton, 2.5 mM sodium pyrophosphate, 1 mM beta-glycerophosphate, 1 mM Na3VO4, 1 μg/ml leupeptin supplemented with protease inhibitor). The lysates were centrifuged at 10,000 RPM for 15 minutes at 4° C. to separate the chromatin-bound and soluble fractions. Lysates were quantified using Bio-Rad Protein Assay, and an equal amount of protein was loaded onto a 4 to 12% gradient gel (NuPAGE-Invitrogen). […] Quantification for the western blots was done using ImageJ (Version 1.53c).
# pSer10-H3 = assay: Immunostaining of pSer10-H3 (ADP-ribosylation dependent DNA repair marker); type: cell-based, rat; conditions: Aβ 50 nM, 24 hours
# Description: Ac-K56-H3 is a marker of genomic stability, see Driscoll, R., Hudson, A. & Jackson, S. P. Yeast Rtt109 promotes genome stability by acetylating histone H3 on lysine 56. Science 315, 649-652, doi:10.1126/science.1135862 (2007), and DNA damage, see Tjeertes, J. V., Miller, K. M. & Jackson, S. P. Screen for DNA-damage-responsive histone modifications identifies H3K9Ac and H3K56Ac in human cells. EMBO J 28, 1878-1889, doi:10.1038/emboj.2009.119 (2009), and inhibition of PARP1 causes the downregulation of RAD51, see Hegan, D. C. et al. Inhibition of poly(ADP-ribose) polymerase down-regulates BRCA1 and RAD51 in a pathway mediated by E2F4 and p130. Proc Natl Acad Sci U S A 107, 2201-2206, doi:10.1073/pnas.0904783107 (2010), and induces neurotoxicity, see Diaz-Hernandez, J. I., Moncada, S., Bolanos, J. P. & Almeida, A. Poly(ADP-ribose) polymerase-1 protects neurons against apoptosis induced by oxidative stress. Cell Death Differ 14, 1211-1221, doi:10.1038/sj.cdd.4402117 (2007) and Midorikawa, R., Takei, Y. & Hirokawa, N. KIF4 motor regulates activity-dependent neuronal survival by suppressing PARP-1 enzymatic activity. Cell 125, 371-383, doi:10.1016/j.cell.2006.02.039 (2006). […] The western blot images of the protein levels of HPF1 was quantified using ImageJ.
# Coverslips were then mounted using DAPI (4′,6-diamidino-2-phenylindole)-supplemented mounting medium, Prolong Gold Antifade (Invitrogen) imaged with Leica DMI6000 epifluorescent microscope at 63×magnification.
# TyrRS [3] = assay: Immunoblot for TyrRS after treatment with Aβ42; type: cell-based, rat; conditions: different doses of Aβ42, 24 hours
# Description: as §1, §2
# TyrRS [4] = target: T2, TyrRS (Homo sapiens, UniProt P54577); conditions: low dose ≤5 μM, HeLa cells; cited from earlier work
# T2 construct: host or cells: HeLa cells
# T2 sequence (P54577 whole entry): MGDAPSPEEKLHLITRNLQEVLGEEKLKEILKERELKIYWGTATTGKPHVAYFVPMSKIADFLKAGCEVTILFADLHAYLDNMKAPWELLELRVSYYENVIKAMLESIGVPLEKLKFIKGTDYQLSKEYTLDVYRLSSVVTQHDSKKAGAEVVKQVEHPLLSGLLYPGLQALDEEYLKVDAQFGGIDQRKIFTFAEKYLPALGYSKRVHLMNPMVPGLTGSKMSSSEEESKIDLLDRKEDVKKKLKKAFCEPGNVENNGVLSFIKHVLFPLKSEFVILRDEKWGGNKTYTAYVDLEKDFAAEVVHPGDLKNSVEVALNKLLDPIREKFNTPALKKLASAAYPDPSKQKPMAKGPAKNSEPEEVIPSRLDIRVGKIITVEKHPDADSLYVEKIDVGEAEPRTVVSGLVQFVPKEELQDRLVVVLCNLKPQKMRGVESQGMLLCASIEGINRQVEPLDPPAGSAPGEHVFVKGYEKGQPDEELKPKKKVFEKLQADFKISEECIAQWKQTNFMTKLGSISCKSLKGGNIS
# [5] = system: ataxia telangiectasia mutated (ATM) kinase; conditions: low dose 5 μM; cited from earlier work
# TyrRS [6] = assay: Immunostaining of neuronal TyrRS under neurotoxic agents (NMDA, MPP+); type: cell-based, rat; conditions: neurotoxic agent alone (50 μM NMDA, 100 μM MPP+), 4 hours
molecule,measurement,setting,value
human amyloid β protein fragment 1-42 [Aβ],TyrRS protein levels,TyrRS [1],downregulation
same,PheRSβ protein level (immunoblot),[2],did not downregulate
same,pSer10-H3 levels,pSer10-H3,upregulation
same,TyrRS protein level (immunoblot),TyrRS [3],downregulates TyrRS in a dose-dependent manner
"Oc1ccc(C=Cc2cc(O)cc(O)c2)cc1 [RSV, Resveratrol]",protein levels of TyrRS,TyrRS [4],upregulated the protein levels of TyrRS
same,ATM kinase activation,[5],activate
"CN[C@H](CC(=O)O)C(=O)O [NMDA, N-Methyl-D-aspartate]",neuronal protein levels of TyrRS,TyrRS [6],downregulate the neuronal protein levels of TyrRS
"C[n+]1ccc(-c2ccccc2)cc1 [MPP^+, 1-methyl-4-phenylpyridinium]",neuronal protein levels of TyrRS,TyrRS [6],downregulate the neuronal protein levels of TyrRS
